Columns and labels:
Type in all cases: cell-based, mouse
[1] = system: α7 integrin (LacZ reporter in α7+/LacZ myotubes); assay: Myotube α7 integrin FDG assay (Burkin assay in myotubes, 96-well); settings: myotubes
[2] = system: α7 integrin (LacZ reporter in α7βgal+/− myoblasts); assay: Myoblast α7+/LacZ integrin FDG assay (Burkin assay in myoblasts, 96-well); settings: α7+/LacZ myoblasts, 96-well
[3] = system: β-galactosidase in CMV-LacZ C2C12 myotubes; assay: CMV-LacZ secondary screen in C2C12 myotubes (β-Gal stabilizing assay); settings: C2C12 CMV-LacZ myotubes, fold relative to DMSO
Procedure, shortened: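 β-gal stabilization was measured in C2C12 myoblasts or myotubes stably transfected with a CMV-driven LacZ construct, using the FDG β-gal assay. Compounds were tested in dose-response at 0.5, 1, 5, 10, 20 and 40 μM, with two replicates per point.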

[4] = system: β-galactosidase in CMV-LacZ C2C12 myoblasts; assay: CMV-LacZ secondary screen in C2C12 myoblasts (β-Gal stabilizing assay); settings: CMV-LacZ C2C12 myoblasts
Procedure, shortened: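 CMV-LacZ C2C12 line (clonal, FDG-screened); myoblasts/myotubes dosed 0.5–40 μM (0.5, 1, 5, 10, 20, 40 μM); n=2 per point; β-gal stabilization read-out.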

SMILES: N#Cc1ccc(Sc2nc3ccccc3[nH]2)cc1C#N [MLS000110418-01]
- Burkin Assay in Myotubes, α7 integrin LacZ reporter signal relative to DMSO ([1]; 0.5 uM): 1.073
- Burkin Assay in Myotubes, α7 integrin LacZ reporter signal relative to DMSO ([1]; 1 uM): 1.0975
- Burkin Assay in Myotubes, α7 integrin LacZ reporter signal relative to DMSO ([1]; 5 uM): 1.017
- Burkin Assay in Myotubes, α7 integrin LacZ reporter signal relative to DMSO ([1]; 10 uM): 0.943
- Burkin Assay in Myotubes, α7 integrin LacZ reporter signal relative to DMSO ([1]; 20 uM): 0.9939
- Burkin Assay in Myotubes, α7 integrin LacZ reporter signal relative to DMSO ([1]; 40 uM): 0.8855
- Burkin Assay in Myoblasts, signal relative to DMSO ([2]; 0.5 uM): 1.3095
- Burkin Assay in Myoblasts, signal relative to DMSO ([2]; 1 uM): 1.079
- Burkin Assay in Myoblasts, signal relative to DMSO ([2]; 5 uM): 1.249
- Burkin Assay in Myoblasts, signal relative to DMSO ([2]; 10 uM): 1.12
- Burkin Assay in Myoblasts, signal relative to DMSO ([2]; 20 uM): 1.004
- Burkin Assay in Myoblasts, signal relative to DMSO ([2]; 40 uM): 0.8889
- CMV-LACZ in Myotubes, signal relative to DMSO ([3]; 0.5 uM): 1.0333
- CMV-LACZ in Myotubes, signal relative to DMSO ([3]; 1 uM): 0.9000
- CMV-LACZ in Myotubes, signal relative to DMSO ([3]; 5 uM): 0.9617
- CMV-LACZ in Myotubes, signal relative to DMSO ([3]; 10 uM): 0.9599
- CMV-LACZ in Myotubes, signal relative to DMSO ([3]; 20 uM): 1.0459
- CMV-LACZ in Myotubes, signal relative to DMSO ([3]; 40 uM): 1.3647
- CMV-LACZ in Myoblasts (β-galactosidase activity relative to DMSO) ([4]; 0.5 uM): 0.8871
- CMV-LACZ in Myoblasts (β-galactosidase activity relative to DMSO) ([4]; 1 uM): 0.9989
- CMV-LACZ in Myoblasts (β-galactosidase activity relative to DMSO) ([4]; 5 uM): 1.0913
- CMV-LACZ in Myoblasts (β-galactosidase activity relative to DMSO) ([4]; 10 uM): 0.9455
- CMV-LACZ in Myoblasts (β-galactosidase activity relative to DMSO) ([4]; 20 uM): 0.8926
- CMV-LACZ in Myoblasts (β-galactosidase activity relative to DMSO) ([4]; 40 uM): 0.7141

SMILES: COc1ccc(Cl)cc1NC(=O)c1cc(-c2cc(C)ccc2O)n[nH]1 [MLS000779126-01]
- Burkin Assay in Myotubes, α7 integrin LacZ reporter signal relative to DMSO ([1]; 0.5 uM): 0.9836
- Burkin Assay in Myotubes, α7 integrin LacZ reporter signal relative to DMSO ([1]; 1 uM): 1.018
- Burkin Assay in Myotubes, α7 integrin LacZ reporter signal relative to DMSO ([1]; 5 uM): 0.9146
- Burkin Assay in Myotubes, α7 integrin LacZ reporter signal relative to DMSO ([1]; 10 uM): 0.8758
- Burkin Assay in Myotubes, α7 integrin LacZ reporter signal relative to DMSO ([1]; 20 uM): 0.8832
- Burkin Assay in Myotubes, α7 integrin LacZ reporter signal relative to DMSO ([1]; 40 uM): 0.7768
- Burkin Assay in Myoblasts, signal relative to DMSO ([2]; 0.5 uM): 1.019
- Burkin Assay in Myoblasts, signal relative to DMSO ([2]; 1 uM): 1.115
- Burkin Assay in Myoblasts, signal relative to DMSO ([2]; 5 uM): 0.9229
- Burkin Assay in Myoblasts, signal relative to DMSO ([2]; 10 uM): 0.8196
- Burkin Assay in Myoblasts, signal relative to DMSO ([2]; 20 uM): 0.9124
- Burkin Assay in Myoblasts, signal relative to DMSO ([2]; 40 uM): 0.9389
- CMV-LACZ in Myotubes, signal relative to DMSO ([3]; 0.5 uM): 0.9495
- CMV-LACZ in Myotubes, signal relative to DMSO ([3]; 1 uM): 1.2162
- CMV-LACZ in Myotubes, signal relative to DMSO ([3]; 5 uM): 1.0257
- CMV-LACZ in Myotubes, signal relative to DMSO ([3]; 10 uM): 1.0467
- CMV-LACZ in Myotubes, signal relative to DMSO ([3]; 20 uM): 0.9988
- CMV-LACZ in Myotubes, signal relative to DMSO ([3]; 40 uM): 1.1671
- CMV-LACZ in Myoblasts (β-galactosidase activity relative to DMSO) ([4]; 0.5 uM): 0.9751
- CMV-LACZ in Myoblasts (β-galactosidase activity relative to DMSO) ([4]; 1 uM): 0.9994
- CMV-LACZ in Myoblasts (β-galactosidase activity relative to DMSO) ([4]; 5 uM): 0.9637
- CMV-LACZ in Myoblasts (β-galactosidase activity relative to DMSO) ([4]; 10 uM): 0.7610
- CMV-LACZ in Myoblasts (β-galactosidase activity relative to DMSO) ([4]; 20 uM): 0.9944
- CMV-LACZ in Myoblasts (β-galactosidase activity relative to DMSO) ([4]; 40 uM): 0.7441

SMILES: O=CN1CCN(C(=O)CC(c2ccccc2)c2cc(Br)ccc2O)CC1 (stereo not drawn) [MLS001000874-01]
- Burkin Assay in Myotubes, α7 integrin LacZ reporter signal relative to DMSO ([1]; 0.5 uM): 0.9357
- Burkin Assay in Myotubes, α7 integrin LacZ reporter signal relative to DMSO ([1]; 1 uM): 0.8646
- Burkin Assay in Myotubes, α7 integrin LacZ reporter signal relative to DMSO ([1]; 5 uM): 1.0731
- Burkin Assay in Myotubes, α7 integrin LacZ reporter signal relative to DMSO ([1]; 10 uM): 0.9216
- Burkin Assay in Myotubes, α7 integrin LacZ reporter signal relative to DMSO ([1]; 20 uM): 0.9266
- Burkin Assay in Myotubes, α7 integrin LacZ reporter signal relative to DMSO ([1]; 40 uM): 0.8181
- Burkin Assay in Myoblasts, signal relative to DMSO ([2]; 0.5 uM): 1.175
- Burkin Assay in Myoblasts, signal relative to DMSO ([2]; 1 uM): 1.033
- Burkin Assay in Myoblasts, signal relative to DMSO ([2]; 5 uM): 1.077
- Burkin Assay in Myoblasts, signal relative to DMSO ([2]; 10 uM): 0.8677
- Burkin Assay in Myoblasts, signal relative to DMSO ([2]; 20 uM): 1.007
- Burkin Assay in Myoblasts, signal relative to DMSO ([2]; 40 uM): 0.9545
- CMV-LACZ in Myotubes, signal relative to DMSO ([3]; 0.5 uM): 1.0943
- CMV-LACZ in Myotubes, signal relative to DMSO ([3]; 1 uM): 1.1590
- CMV-LACZ in Myotubes, signal relative to DMSO ([3]; 5 uM): 1.1124
- CMV-LACZ in Myotubes, signal relative to DMSO ([3]; 10 uM): 0.9960
- CMV-LACZ in Myotubes, signal relative to DMSO ([3]; 20 uM): 1.1484
- CMV-LACZ in Myotubes, signal relative to DMSO ([3]; 40 uM): 1.0947
- CMV-LACZ in Myoblasts (β-galactosidase activity relative to DMSO) ([4]; 0.5 uM): 1.1029
- CMV-LACZ in Myoblasts (β-galactosidase activity relative to DMSO) ([4]; 1 uM): 1.0442
- CMV-LACZ in Myoblasts (β-galactosidase activity relative to DMSO) ([4]; 5 uM): 0.8886
- CMV-LACZ in Myoblasts (β-galactosidase activity relative to DMSO) ([4]; 10 uM): 1.0295
- CMV-LACZ in Myoblasts (β-galactosidase activity relative to DMSO) ([4]; 20 uM): 1.0556
- CMV-LACZ in Myoblasts (β-galactosidase activity relative to DMSO) ([4]; 40 uM): 1.1100

Source: US9980943B2, “Methods of treating muscular dystrophy” (BOARD OF REGENTS OF THE NEVADA SYSTEM OF HIGHER EDUCATION, …, priority 2013, dated 2018)
